Data from patent US20260294906A1, “TREATING PSORIASIS USING A SMALL MOLECULE INHIBITOR OF TUMOR NECROSIS FACTOR ALPHA” (SANOFI, priority 2023, published 2026).
Several values for one entry are separate records, joined by “and”; a condition that tells them apart may be missing. Equal entries are not always repeated.

Tested on: patients with mild to moderate psoriasis
Experiment: Clinical response by Target Lesion Severity (TLS) score, phase 1 placebo-controlled study
Format: in vivo, human
Settings: for Mean (±SEM) % improvement from baseline in TLS score / ΔLSm (±SE) (Compound 1 minus placebo) in % improvement from baseline in TLS score: 200 mg BID; for LSm (±SE) % improvement from baseline in TLS score: 200 mg BID oral, fed, average of 2 lesions; for LSm (±SE) % improvement from baseline in TLS score / ΔLSm (±SE) (Compound 1 minus placebo) in % improvement from baseline in TLS score: MMRM
Method: A double-blind, randomized, placebo-controlled phase 1 study was carried out in participants with mild to moderate psoriasis. Study participants were randomized to 200 mg twice a day (BID) of Compound 1 or placebo in 2:1 ratio (approximately 24 in the treatment group and 12 in the placebo group). The study comprised an up to 4-week screening period, and a 4-week treatment period with Compound 1 or placebo. An end-of-study visit was carried out 10±3 days after the last investigational medicinal product (IMP) administration.
The primary objective of the study was to assess the safety, tolerability, and clinical efficacy of Compound 1 at 200 mg BID via oral administration. Also evaluated was the clinical effect of Compound 1 as compared to placebo on the percent change in PASI and TLS scores from baseline to week 2 and week 4. The percent change in PASI score from baseline to week 4 was determined. TLS score was also assessed over the same time period. Also assessed was the effect of Compound 1 on biomarkers of psoriasis. Blood samples collected at predetermined time points were processed to quantify serum levels of biomarkers, including interleukin (IL)-17A, IL-17F, and IL-22 by high sensitivity methods. IL-17A, IL-17F and IL-22 are the main cytokines released by Th17 cells. Plasma levels of Compound 1 were measured to assess pharmacokinetics in the study population.
Two study interventions were used, Compound 1 and placebo. The Compound 1 intervention comprised 4× tablets of Compound 1 50 mg twice daily, i.e. 200 mg BID, for 4 weeks. The placebo intervention was 4× tablets of placebo twice daily for 4 weeks. Tablets were administered orally.
The interventions were used in two arms of the study. Arm 1 was the experimental arm and it involved participants receiving 200 mg of Compound BID for 4 weeks under fed conditions. Arm 2 was the placebo arm and it involved participants receiving the matching placebo tablets for 4 weeks under fed conditions.
TLS score, which is a validated tool for psoriasis severity assessment, was used to evaluate severity and to assess clinical efficacy. It consists of a sum score of 3 clinical severity parameters (scaling, erythema, plaque elevation/induration; each graded on a 5-point severity scale; 0=clear, 1=slight, 2=mild, 3=moderate, and 4=severe) with a sum score ranging between 0 and 12 points (see, e.g., Czamowicki et al., J Am Acad Dermatol. (2014) 71(5):954-959.e1). The following assessment was used, in which TLS score was calculated as the sum of A+B+C (adapted from Fredriksson et al., Dermatologica (1978) 157(4):238-244):
The TLS score was assessed at baseline, 2 weeks and 4 weeks. Table 2 below presents the Least Square means (LSm)±Standard Error (SE) for each treatment and the Least Squares means difference (ΔLSm; Compound 1 minus placebo)±Standard Error (SE) with 90% confidence interval (CI) in percentage improvement from baseline in the TLS score (calculated as the average of the TLS score values collected from 2 lesions) at week 2 and week 4.
The results in Table 2 were obtained using the Mixed Model for Repeated Measures (MMRM).
Table 3 below presents the mean (±SEM) percentage improvement from baseline in the TLS score (calculated as the average of the TLS score values collected from 2 lesions) at week 2 and week 4 in the patient population with PASI<10 (mild) or PASI≥10 (moderate) at baseline.
The results in Table 3 come from standard descriptive analysis, ^(1)N=3, ^(2)N=15

CN1C(=O)c2cccc(OC(F)F)c2[C@H]2C[C@@H]1c1nc3ccc(-c4cnc(C5(N)CCC5)nc4)cc3n12 [Compound 1, (7R,14R)-11-[2-(1-aminocyclobutyl)pyrimidin-5-yl]-1-(difluoromethoxy)-6-methyl-6,7-dihydro-7,14-methanobenzimidazo[1,2-b][2,5]benzodiazocin-5(14H)-one]
Mean (±SEM) % improvement from baseline in TLS score (PASI < 10 (mild) population, week 2, N = 16, SEM 3.61): 20.9%
Mean (±SEM) % improvement from baseline in TLS score (PASI < 10 (mild) population, week 4, N = 15, SEM 6.32): 37.0%
Mean (±SEM) % improvement from baseline in TLS score (PASI ≥ 10 (moderate) population, week 2, N = 9): 10.9% and 10.9 (6.20) %
Mean (±SEM) % improvement from baseline in TLS score (PASI ≥ 10 (moderate) population, week 4, N = 9): 39.7% and 39.7 (4.03) %
LSm (±SE) % improvement from baseline in TLS score (week 2, vs placebo 6.29%, p=0.032): 17.06% and 17.06 (3.13) %
ΔLSm (±SE) (Compound 1 minus placebo) in % improvement from baseline in TLS score (week 2, 90% CI 1.29 to 20.26): 10.77% and 10.77 (5.61) %
LSm (±SE) % improvement from baseline in TLS score (week 4, vs placebo 20.44%, p=0.012): 38.18% and 38.18 (4.33) %
ΔLSm (±SE) (Compound 1 minus placebo) in % improvement from baseline in TLS score (week 4, 90% CI 4.98 to 30.49): 17.7% and 17.74% and 17.74 (7.54) %
mean reduction in TLS score from baseline (week 4, FIG. 1, placebo around 1.25 points): around 2.5 points
